The values that follow come from ChEMBL document CHEMBL4251615, “Discovery of anilino-furo[2,3-d]pyrimidine derivatives as dual inhibitors of EGFR/HER2 tyrosine kinase and their anticancer activity” (Eur J Med Chem, 2018).

Active and inactive are the calls of the source. The calls are words filed in the database; no cut-off is given here. A value given as a limit tells only on which side of the number the result lay.

Series [1] has as its target T1, Epidermal growth factor receptor (Homo sapiens, UniProt P00533). The experiment in a line: Inhibition of recombinant human C-terminal His/N-terminal GST-tagged EGFR (668 to 1210 residues) expressed in baculovirus infected Sf9 cells at 10 uM using biotin-labeled poly[Glu:Tyr] (4:1) as substrate after 30 mins by Kinase-Glo plus luminescence assay relative to control. (In general: Kinase-Glo measures the ATP left after a reaction by luminescence.)

Series [2] deals with MCF7. The experiment in a line: Cytotoxicity against human MCF7 cells assessed as reduction in cell viability after 72 hrs by MTT assay. It counts as functional, cell-based. Conditions: MCF7, 72 h. (Tetrazolium assays rely on reduction of a dye to a coloured formazan, in cell work by metabolically active cells.)
Series [3] deals with A549. As to the kind of experiment: Cytotoxicity against human A549 cells assessed as reduction in cell viability after 72 hrs by MTT assay. It counts as functional, cell-based. Conditions: A549, 72 h.
In series [4] the target is Receptor tyrosine-protein kinase erbB-2 (Homo sapiens) (UniProt P04626). As to the kind of experiment: Inhibition of recombinant human N-terminal GST-tagged HER2 (679 to 1255 residues) expressed in baculovirus infected Sf9 cells at 10 uM using poly[Glu:Tyr] (4:1) as substrate after 40 mins by Kinase-Glo plus luminescence assay relative to control.
The test system of series [5] is Ehrlich. As to the kind of experiment: Antitumor activity against mouse EAC cells implanted in albino mouse assessed as tumor growth inhibition at 5 mg/kg, po once daily for 8 consecutive days relative to control. The class given is functional. The settings on record: read-out: TGI.
Series [6] concerns Ehrlich. As to the kind of experiment: Antitumor activity against mouse EAC cells implanted in albino mouse assessed as tumor growth inhibition at 10 mg/kg, po once daily for 8 consecutive days relative to control. The settings on record: read-out: TGI. It counts as functional.
Series [7] relates to Ehrlich. As to the kind of experiment: Antitumor activity against mouse EAC cells implanted in albino mouse assessed as tumor growth inhibition administered orally once daily for 8 consecutive days. The class given is functional.
The subject of series [8] is Mus musculus. The experiment in a line: Toxicity in albino mouse implanted with mouse EAC cells assessed as body weight change at 5 to 10 mg/kg, po once daily for 8 consecutive days. It counts as organism-based. Conditions: in vivo.
Series [9] deals with Mus musculus. As to the kind of experiment: Toxicity in albino mouse implanted with mouse EAC cells assessed as change in organ index at 5 to 10 mg/kg, po once daily for 8 consecutive days. The class given is organism-based. The settings on record: in vivo.
Series [10] concerns Ehrlich. As to the kind of experiment: Antitumor activity against mouse EAC cells implanted in albino mouse assessed as cell death in thigh muscle tumor cells at 10 mg/kg, po once daily for 8 consecutive days by hematoxylin and eosin staining based light microscopic method. It counts as functional, organism-based.
For series [11], the system named is Ehrlich. The experiment in a line: Antitumor activity against mouse EAC cells implanted in albino mouse assessed as increase in caspase-3 expression in tumor at 10 mg/kg, po once daily for 8 consecutive days by immunohistochemical analysis relative to control. The class given is functional.
In series [12] the test system is Ehrlich. The experiment in a line: Antitumor activity against mouse EAC cells implanted in albino mouse assessed as increase in cytochrome-c expression in tumor at 10 mg/kg, po once daily for 8 consecutive days by immunohistochemical analysis. The class given is functional, organism-based.
Series [13] relates to A549. The experiment in a line: Cell cycle arrest in human A549 cells assessed as accumulation at pre-G1 phase after 24 hrs by propidium iodide staining based flow cytometry relative to control. It counts as functional. (In general: Flow cytometry measures light scatter and fluorescence of single cells or particles in a stream.)
The subject of series [14] is A549. As to the kind of experiment: Cell cycle arrest in human A549 cells assessed as accumulation at G2/M phase after 24 hrs by propidium iodide staining based flow cytometry relative to control. The class given is functional.
The test system of series [15] is A549. The experiment in a line: Induction of apoptosis in human A549 cells assessed as increase in early apoptotic cells after 24 hrs by Annexin V-FITC/propidium iodide staining based flow cytometry relative to control. The class given is functional.
In series [16] the test system is A549. As to the kind of experiment: Induction of apoptosis in human A549 cells assessed as increase in late apoptotic cells after 24 hrs by Annexin V-FITC/propidium iodide staining based flow cytometry relative to control. It counts as functional.
Series [17] concerns A549. As to the kind of experiment: Induction of apoptosis in human A549 cells assessed as live cells after 24 hrs by Annexin V-FITC/propidium iodide staining based flow cytometry (reference value: 97.93%). It counts as functional.
The test system of series [18] is A549. The experiment in a line: Induction of apoptosis in human A549 cells assessed as early apoptotic cells after 24 hrs by Annexin V-FITC/propidium iodide staining based flow cytometry (reference value: 0.26%). The class given is functional.
The subject of series [19] is A549. The experiment in a line: Induction of apoptosis in human A549 cells assessed as late apoptotic cells after 24 hrs by Annexin V-FITC/propidium iodide staining based flow cytometry (reference value: 0.11%). The class given is functional.
The subject of series [20] is A549. As to the kind of experiment: Induction of apoptosis in human A549 cells assessed as necrotic cells after 24 hrs by Annexin V-FITC/propidium iodide staining based flow cytometry (reference value: 0.17%). It counts as functional.
Series [21] deals with T1, Epidermal growth factor receptor. The experiment in a line: Inhibition of recombinant human C-terminal His/N-terminal GST-tagged EGFR (668 to 1210 residues) expressed in baculovirus infected Sf9 cells using biotin-labeled poly[Glu:Tyr] (4:1) as substrate after 30 mins by Kinase-Glo plus luminescence assay.
Series [22] deals with Ehrlich. The experiment in a line: Antitumor activity against mouse EAC cells implanted in albino mouse assessed as focal cell death in thigh muscle tumor cells at 5 to 10 mg/kg, po once daily for 8 consecutive days by hematoxylin and eosin staining based light microscopic method. It counts as functional, organism-based.

Chain of Receptor tyrosine-protein kinase erbB-2 (Homo sapiens) (P04626 whole entry, the tested form may be a part): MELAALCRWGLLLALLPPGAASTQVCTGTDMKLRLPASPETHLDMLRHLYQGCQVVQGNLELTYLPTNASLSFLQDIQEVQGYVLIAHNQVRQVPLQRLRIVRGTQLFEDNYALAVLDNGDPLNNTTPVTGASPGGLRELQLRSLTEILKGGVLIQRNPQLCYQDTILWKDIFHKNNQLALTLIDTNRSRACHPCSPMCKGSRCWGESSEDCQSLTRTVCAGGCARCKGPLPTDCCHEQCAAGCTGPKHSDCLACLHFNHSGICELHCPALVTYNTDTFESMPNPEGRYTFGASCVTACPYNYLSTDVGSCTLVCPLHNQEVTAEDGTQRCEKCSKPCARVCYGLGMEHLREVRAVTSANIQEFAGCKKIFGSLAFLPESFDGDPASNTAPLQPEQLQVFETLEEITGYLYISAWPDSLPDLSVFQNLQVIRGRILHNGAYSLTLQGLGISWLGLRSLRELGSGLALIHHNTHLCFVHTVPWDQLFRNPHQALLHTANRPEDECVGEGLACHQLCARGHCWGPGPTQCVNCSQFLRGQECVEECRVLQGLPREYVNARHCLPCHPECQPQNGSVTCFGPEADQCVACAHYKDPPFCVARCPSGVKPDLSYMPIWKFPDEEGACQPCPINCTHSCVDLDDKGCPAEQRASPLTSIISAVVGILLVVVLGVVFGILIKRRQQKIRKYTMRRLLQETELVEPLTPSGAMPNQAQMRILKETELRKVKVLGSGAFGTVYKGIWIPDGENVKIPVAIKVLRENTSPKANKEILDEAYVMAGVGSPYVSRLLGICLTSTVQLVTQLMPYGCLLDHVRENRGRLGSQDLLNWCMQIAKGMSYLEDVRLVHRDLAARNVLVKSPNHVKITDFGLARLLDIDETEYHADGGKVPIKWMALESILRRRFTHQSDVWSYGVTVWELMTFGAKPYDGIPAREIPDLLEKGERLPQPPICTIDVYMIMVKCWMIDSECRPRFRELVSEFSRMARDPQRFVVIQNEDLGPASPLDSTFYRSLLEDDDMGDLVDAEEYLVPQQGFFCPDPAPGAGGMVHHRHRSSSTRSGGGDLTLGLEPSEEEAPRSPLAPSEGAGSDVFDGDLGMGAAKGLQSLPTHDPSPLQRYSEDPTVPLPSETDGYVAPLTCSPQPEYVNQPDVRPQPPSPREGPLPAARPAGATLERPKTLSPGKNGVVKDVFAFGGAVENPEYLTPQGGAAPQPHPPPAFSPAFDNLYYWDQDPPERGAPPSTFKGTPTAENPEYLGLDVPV
T1 sequence (P00533 whole entry, the tested form may be a part): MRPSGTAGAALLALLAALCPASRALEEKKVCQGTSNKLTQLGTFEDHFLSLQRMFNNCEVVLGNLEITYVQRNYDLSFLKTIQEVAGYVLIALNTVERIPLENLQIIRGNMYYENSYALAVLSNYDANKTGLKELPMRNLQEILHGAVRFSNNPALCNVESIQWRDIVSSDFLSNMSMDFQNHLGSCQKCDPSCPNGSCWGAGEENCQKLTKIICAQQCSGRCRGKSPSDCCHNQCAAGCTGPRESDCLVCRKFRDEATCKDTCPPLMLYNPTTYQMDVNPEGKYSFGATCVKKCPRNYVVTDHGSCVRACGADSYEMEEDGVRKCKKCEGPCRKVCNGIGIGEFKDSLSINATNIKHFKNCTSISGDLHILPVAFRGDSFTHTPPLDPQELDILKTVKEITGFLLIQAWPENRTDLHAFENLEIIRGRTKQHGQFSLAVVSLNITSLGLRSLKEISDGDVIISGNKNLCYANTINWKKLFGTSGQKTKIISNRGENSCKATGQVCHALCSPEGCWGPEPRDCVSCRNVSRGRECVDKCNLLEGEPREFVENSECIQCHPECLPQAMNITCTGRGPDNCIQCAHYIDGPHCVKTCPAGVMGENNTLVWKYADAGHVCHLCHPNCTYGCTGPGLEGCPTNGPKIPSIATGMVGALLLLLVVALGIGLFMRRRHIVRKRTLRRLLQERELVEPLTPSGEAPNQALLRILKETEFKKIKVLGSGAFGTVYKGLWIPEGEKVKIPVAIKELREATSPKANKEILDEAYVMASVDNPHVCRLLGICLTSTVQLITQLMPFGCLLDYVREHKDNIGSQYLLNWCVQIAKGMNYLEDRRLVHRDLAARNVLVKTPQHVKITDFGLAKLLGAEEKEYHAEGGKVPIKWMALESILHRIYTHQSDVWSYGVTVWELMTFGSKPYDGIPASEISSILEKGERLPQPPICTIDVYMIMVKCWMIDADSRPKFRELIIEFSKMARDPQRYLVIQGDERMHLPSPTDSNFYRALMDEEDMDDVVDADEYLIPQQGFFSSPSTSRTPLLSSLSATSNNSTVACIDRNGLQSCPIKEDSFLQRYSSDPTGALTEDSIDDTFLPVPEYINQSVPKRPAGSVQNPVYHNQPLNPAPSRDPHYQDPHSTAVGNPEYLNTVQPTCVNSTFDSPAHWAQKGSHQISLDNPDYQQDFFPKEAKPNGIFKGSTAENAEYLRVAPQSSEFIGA

`C#Cc1cccc(Nc2ncnc3oc(C)c(C(=O)OCC)c23)c1`: the inhibition (in general, the relative decrease from the control value, in per cent) in series [1] amounted to 26%. The IC50 in series [2] and in [3] was greater than 1000 µM throughout.
Consider `CCOC(=O)c1c(C)oc2ncnc(Nc3ccc(OCc4ccccc4)cc3)c12`, for which the inhibition in [1] came out at 10%; in series [4], 3%. Moreover, the 50% inhibitory concentration (IC50) in series [2] and in series [3] was greater than 1000 µM each time.
For `Cc1cccc(Nc2ncnc3oc(C)c(C(=O)O)c23)c1`, the inhibition in [1] came out at 58%. Besides, the IC50 (usually the point on the concentration scale where inhibition reaches its midpoint) in series [2] came to 57.5 µM; in series [3] it was 100 µM.
With `Cc1oc2ncnc(Nc3ccccc3)c2c1C(=O)O`, the inhibition in [1] was determined as 30%. The figures for the IC50 in [2] and in series [3] were 246 µM and 191 µM, respectively.
On the same counts, the results for `Cc1oc2ncnc(Nc3cccc(Cl)c3)c2c1C(=O)NC(C)C` are 21%, 190 µM and greater than 1000 µM.
On the same counts, the results for `CCOC(=O)c1c(C)oc2ncnc(Nc3cccc(C)c3)c12` are 52%, greater than 1000 µM and greater than 1000 µM.
Take `Cc1oc2ncnc(Nc3cccc(Br)c3)c2c1C(=O)NCCO`: in series [1], the inhibition was found to be 73%. Further, the figures for the IC50 in series [2] and in series [3] were 22 µM and 17.4 µM, respectively.
As for `CCOC(=O)c1c(C)oc2ncnc(Nc3ccc(OCc4cccc(F)c4)c(Cl)c3)c12`, the inhibition in series [1] came out at 18%; in series [4] it was 6%. For the same molecule, the IC50 in series [2] came out at 257 µM; in series [3] it was 0.5 µM. Besides, the inhibition in vivo at 5 mg/kg in series [5] worked out at 35.1%. In series [6], the inhibition in vivo at 10 mg/kg is 67.1%. For the same molecule, the Activity result in series [7] is “Dose-dependent effect”; in series [8], “Non-Toxic”; in series [9], “Non-Toxic”; in series [17] it was 81.19%; in series [18], 6.59%; in series [19] it was 8.69%. Also, the Activity in series [20] is listed as 1.67%. The result in series [10] and in series [12] was Active. In addition, the “fold change (FC)” value in series [11] is recorded as greater than 2; in series [13] it was 32; in [14], 5; in series [15], 25; in [16], 79.
With `CCOC(=O)c1c(C)oc2ncnc(Nc3cccc(Cl)c3)c12`, in [1], the inhibition was 28%. The concentration for half-maximal inhibition (IC50) in series [2] and in series [3] was greater than 1000 µM throughout.
For the molecule `CCCNC(=O)c1c(C)oc2ncnc(Nc3cccc(C)c3)c12`, in [1], the inhibition worked out at 20%. For the same molecule, the IC50 in series [2] and in series [3] was greater than 1000 µM each time.
Regarding `Cc1oc2ncnc(Nc3cccc(Cl)c3)c2c1C(=O)O`, the inhibition in series [1] is 85%. For the same molecule, the IC50 in [21] stood at 901 nM; in series [2], 57.5 µM; in series [3] it was 95.5 µM.
For `Cc1oc2ncnc(Nc3cccc(Br)c3)c2c1CO`, the inhibition in [1] is 70%. The values for the IC50 in [2] and in series [3] were 11 µM and 102 µM, respectively.
For the molecule `Cc1oc2ncnc(Nc3cccc(Br)c3)c2c1C(=O)O`, the inhibition in [1] amounted to 94%. Besides, the IC50 in [21] was found to be 752 nM; in series [2], 68 µM; in series [3], 43 µM. Besides, the inhibition in vivo at 5 mg/kg in [5] came to 61.4%. In [6], the inhibition in vivo at 10 mg/kg worked out at 70.8%. Further, the Activity result is on record as “Non-Toxic” in series [8]; “Non-Toxic” in series [9]; 92.02% in series [17]; 2.78% in [18]; 3.05% in series [19]; 0.66% in series [20]. Also, the result in series [10] and in [12] was Active. Moreover, the entries for the “fold change (FC)” value in [11], in [13] and in series [14] were greater than 2, 12 and 2, respectively.
In the case of `Cc1oc2ncnc(Nc3ccc(OCc4cccc(F)c4)c(Cl)c3)c2c1C(=O)O`, the inhibition in series [1] came out at 100%; in series [4], 65%. Further, the IC50 was 951 nM in series [21], 46 µM in series [2] and 21.4 µM in series [3]. For the same molecule, in series [5], the inhibition in vivo at 5 mg/kg was 34.9%. In series [6], the inhibition in vivo at 10 mg/kg stood at 49%. The Activity entry in [8] is “Non-Toxic”; in [9] it was “Non-Toxic”; in series [11] it was 51%; in series [17] it was 88.77%; in series [18] it was 3.72%; in [19] it was 4.84%. In series [20], the Activity stood at 0.8%. Also, the outcome in series [22] and in series [12] was Active. In addition, the “fold change (FC)” value amounted to 17 in series [13] and 3 in [14].
Regarding `CCOC(=O)c1c(C)oc2ncnc(Nc3ccc(OCc4ccc(C)cc4)cc3)c12`, the results for the inhibition in [1] and in series [4] were 6% and 20%, respectively. Further, the IC50 in series [2] and in series [3] was greater than 1000 µM throughout.
Take `CCOC(=O)c1c(C)oc2ncnc(Nc3ccccc3)c12`: in series [1], the inhibition is 22%. In addition, the IC50 is 851 µM in series [2] and greater than 1000 µM in series [3].
As for `CCOC(=O)c1c(C)oc2ncnc(Nc3cccc(OC)c3)c12`, the inhibition in series [1] stood at 6%. The half-maximal inhibitory concentration (IC50) in [2] and in series [3] was greater than 1000 µM in each case.
As for `COc1cc2ncnc(Nc3ccc(F)c(Cl)c3)c2cc1OCCCN1CCOCC1` [GEFITINIB], the outcome in series [10], in series [11] and in [12] was Active. For the same molecule, the Activity in series [17] is listed as 84.12%; in [18], 5.84%; in series [19] it was 6.72%; in series [20], 1.67%.
As to `Cc1cccc(Nc2ncnc3oc(C)c(CO)c23)c1`, the inhibition in [1] turned out to be 72%. Moreover, the IC50 was 17 µM in [2] and 24 µM in [3].
Consider `CCOC(=O)c1c(C)oc2ncnc(Nc3cccc(Br)c3)c12`, for which the inhibition in series [1] was determined as 26%. Besides, the IC50 in [2] and in series [3] was greater than 1000 µM in each case.
In the case of `CCOC(=O)c1c(C)oc2ncnc(Nc3ccc(OCc4cccc(Cl)c4)cc3)c12`, the results for the inhibition in [1] and in series [4] were 5% and 7%, respectively. In addition, the IC50 in series [2] was found to be 54 µM; in series [3] it was 513 µM.
For `Cc1oc2ncnc(Nc3cccc(Cl)c3)c2c1C(=O)NCCO`, the inhibition in series [1] stood at 85%. The IC50 is 2700 nM in [21], greater than 1000 µM in series [2] and greater than 1000 µM in series [3].
